Measurements as given in patent US20240277861A1, “ANTI-HEPATITIS B VIRUS AGENT TARGETING HOST FACTOR LIPG” (PUROTECH BIO, INC., priority 2021, published 2024).
Residues, ends and D or L forms follow the SMILES beside them.

Columns and labels:
[1] = molecular target: T1, full-length form of LIPG (500 amino acids) (Homo sapiens, UniProt Q9Y5X9); assay: Pull-down assay of LIPH4 peptides against full-length LIPG; format: binding; settings: culture supernatant of transfected 293T cells, compared with no bait
T1 construct: A pull-down assay was performed on the full-length form of LIPG (500 amino acids); made in house
T1 sequence (Q9Y5X9 21-500): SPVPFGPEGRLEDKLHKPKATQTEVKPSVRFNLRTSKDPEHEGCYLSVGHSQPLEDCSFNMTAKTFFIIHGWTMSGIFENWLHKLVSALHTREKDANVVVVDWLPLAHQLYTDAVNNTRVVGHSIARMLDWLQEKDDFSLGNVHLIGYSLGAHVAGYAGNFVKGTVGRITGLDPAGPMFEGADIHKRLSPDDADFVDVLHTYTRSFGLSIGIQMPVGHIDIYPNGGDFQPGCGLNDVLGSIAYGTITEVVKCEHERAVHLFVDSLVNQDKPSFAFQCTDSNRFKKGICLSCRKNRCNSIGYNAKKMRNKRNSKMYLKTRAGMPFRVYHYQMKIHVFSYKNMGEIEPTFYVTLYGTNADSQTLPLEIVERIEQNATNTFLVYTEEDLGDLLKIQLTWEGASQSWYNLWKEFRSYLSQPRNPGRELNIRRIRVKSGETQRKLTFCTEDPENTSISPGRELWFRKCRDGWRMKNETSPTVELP
Description: Human embryonic kidney 293T cells were cultured in DMEM (1.0 g/l glucose) with L-Gln and Sodium Pyruvate, liquid (Nacalai) supplemented with 10% FCS ([…]). Plating was performed in a 1:2 ratio on 6 cm dishes 24 hours before transfection. Lipofectamine 2000 in a volume of 20 μl was added to 500 μl of Opti-MEM 1 and allowed to stand for 5 minutes at room temperature, and the resulting mixture was gently added to a 6 cm dish containing a mixture of 500 μl of Opti-MEM 1 and 8 μg of a plasmid DNA. The resulting mixture was allowed to stand for 20 minutes at room temperature, and then added to a 6 cm dish containing 293T cells, and the cells were cultured at 37° C. in 5% CO2 for 4 to 6 day.
Resin (Streptavidin MagneSphere Paramagnetic Particles) (Promega) was washed using the MagneSphere Technology Magnetic Separation Stand (tweleve-position). The resin in a volume of 40 μl was added to each 1.5 ml tube, and after removal of the solution, washed three times with 1 ml of PBS. The resin was transferred to new tubes and mixed with 0.5 nmol (109 μl) of LIPG-BioFLAGHis or with 109 μl of PBS as a no bait control, and the resulting mixtures were agitated at 4° C. for 1 hour by rotation on a mini-disk rotor (BIO CRAFT) to allow binding. After removal of the solution, the resin was washed three times with 1 ml of TBST (containing 0.05% Tween 20). The resin was transferred to new tubes, blocked with 1 ml of ELISA BSA buffer (TBS, 0.05%, Tween 20, 1% BSA. Nacalai Tesque, Inc.) at 4° C. for 1 hour, and then washed three times with 1 ml of ELISA BSA buffer. The resin was transferred to new tubes, and 1000 μl of the culture supernatant containing expressed KIgk-LIPH4 was mixed with […] of the resin treated with LIPG-BioFLAGHis or without the bait, and the resulting mixtures were agitated at 4° C. for 1 hour and 30 minutes by rotation on a mini-disk rotor (BIO CRAFT) to allow binding. After removal of the solution, the resin was washed three times with […] of TBST (Tween 20, 0.1%), and the recovered resin was used for Western blotting.
Each resin was mixed with water and LDS sample buffer (4×), 0.2 mM DTT, heated at 70° C. for 10 minutes, and then subjected to SDS-PAGE. SDS-PAGE was performed using 4-12% Bis-Tris gel and NuPAGE MES-SDS electrophoresis buffer (Invitrogen) at 200 V and 400 mA for 35 minutes. After electrophoresis, transfer was performed using Mini Format, 0.2-μm PVDF, Single-application (BIO-RAD) Trans-Blot Turbo. The membrane was blocked with a Blocking One Buffer: TBST (1:9) solution and reacted with an anti-Flag-HRP (Sigma: A8592) diluted 2:3000 in a Blocking One Buffer: TBST (1:9) solution. Detection was performed using ECL (Enhanced ChemiLuminescence) on a ChemiDoc (BIO-RAD).
A pull-down assay was performed on the full-length form of LIPG (500 amino acids) with LIPH4 peptides (FIG. 16).

[2] = tested on: HBV; assay: Anti-HBV activities of LIPG-binding peptides in HepG2-NTCP-C4 cells (plasmid transfection); format: cell-based
Description: (§1) SMI TEST™ M EX-R&D (Medical & Biological Laboratories) was used to extract DNA from the samples. The extracted DNA was used as a template for quantitative PCR of HBV-DNA. For cccDNA detection, the extracted DNA was treated with T5 exonuclease (New England Biolabs), and the resulting DNA was used as a template for quantitative PCR. The T5 exonuclease treatment was performed at 37° C. for 30 minutes, and the DNase was later inactivated by heating at 80° C. for 15 minutes. The following primer set was used for detection.
Cells were infected with HBV derived from HepG2.2.15 at 20,000 genome equivalents/cell, and plasmids carrying different peptides were transfected individually into the cells 12 to 15 days post infection using Lipofectamine 3000. Samples were collected 3 to 5 days after transfection for evaluation of HBV-DNA, cccDNA, pgRNA, and the like.
For the clones positive in the pull-down experiment against full-length LIPG, the anti-HBV activities of the LIPG peptides were evaluated in HepG2-NTCP-C4 cells (FIG. 17). A secretion signal is added to a plasmid carrying each peptide. Therefore, the peptides are expected to be secreted from cells transfected with the plasmids and to bind to LIPG in the extracellular environment. […] Moreover, the copy number of cccDNA was reduced by almost all the clones.

[3] = tested on: HBV; assay: Anti-HBV activities of LIPG-binding peptides in PXB cells; format: cell-based; settings: HBV-infected PXB cells
Description: An infection source medium was prepared by adding the HBV-infected chimeric mouse serum (PhoenixBio), DMSO, and a PEG 8000 solution to the PXB cell culture medium (PhoenixBio) at final concentrations of 5 genome equivalents/cell, 2%, and 4%, respectively. Various synthesized peptides were diluted to different concentrations in this medium, and the resulting media were added individually to PXB cells (PhoenixBio). After the cells were left to stand in a 5% CO2 incubator at 37° C. for 20 to 28 hours, the medium was removed and the wells were washed once with PBS(−). DMSO and one of the various synthesized peptides were added to the PXB cell culture medium at a final concentration of 2% and different concentrations, respectively, and the resulting media were added individually to the PXB cells to perform medium exchange. This medium exchange was performed at 1, 5, and 9 days post infection and samples were collected at 14 days post infection.
as §1
PXB cells, fresh human liver cells isolated from PXB mice (human hepatocyte chimeric mice), are human liver cells that maintain human liver functions at high levels and allow persistent infection with hepatitis B virus (HBV). Therefore, PXB cells were used to evaluate the anti-HBV activities of LIPG-binding peptides. LIPG-binding peptides were chemically synthesized because they were added extracellularly (Eurofins Genomics K.K.). Clones that had shown excellent results in the studies of Examples 10 and 1 (KIgk-LIPH4-23, KIgk-LIPH4-74, KIgk-LIPH4-15, KIgk-L1l 14-2. KIgk-LIPH14-14. KIgk-LIPH4-87) were selected for chemical synthesis of the peptides. […] Therefore, LIPH4-NTNA and LIPH4-NTNB, which share a common sequence with netrins and consist of 16 amino acids, were also chemically synthesized. The chemically synthesized peptides were dissolved in DMSO for use in HBV assays in PXB cells.
Next, the anti-HBV activity of full-length Netrin-1 was examined in PXB cells. A full-length human recombinant Netrin-1 protein consisting of 604 amino acid residues (molecular weight: 67.5 kDa, SEQ ID NO: 28) was purchased from R&D Systems. United States. A shRNA with the sequence […]ctcgagc[…] TTTTTTG (single underline: terminal sequences for cloning, lowercase letters: hairpin loop sequence) (SEQ ID NO: 64) was used to knock down the Netrin-1 gene.

[4] = format: physicochemical
Source text: Therefore, peptides designed by reducing the number of amino acid residues in these two peptides to 8 (LIPH4-23s and LIPH4-NTNBs) were next chemically synthesized.

[5] = molecular target: T2, N4BP1 (NEDD4 Binding Protein 1)
T2 chain: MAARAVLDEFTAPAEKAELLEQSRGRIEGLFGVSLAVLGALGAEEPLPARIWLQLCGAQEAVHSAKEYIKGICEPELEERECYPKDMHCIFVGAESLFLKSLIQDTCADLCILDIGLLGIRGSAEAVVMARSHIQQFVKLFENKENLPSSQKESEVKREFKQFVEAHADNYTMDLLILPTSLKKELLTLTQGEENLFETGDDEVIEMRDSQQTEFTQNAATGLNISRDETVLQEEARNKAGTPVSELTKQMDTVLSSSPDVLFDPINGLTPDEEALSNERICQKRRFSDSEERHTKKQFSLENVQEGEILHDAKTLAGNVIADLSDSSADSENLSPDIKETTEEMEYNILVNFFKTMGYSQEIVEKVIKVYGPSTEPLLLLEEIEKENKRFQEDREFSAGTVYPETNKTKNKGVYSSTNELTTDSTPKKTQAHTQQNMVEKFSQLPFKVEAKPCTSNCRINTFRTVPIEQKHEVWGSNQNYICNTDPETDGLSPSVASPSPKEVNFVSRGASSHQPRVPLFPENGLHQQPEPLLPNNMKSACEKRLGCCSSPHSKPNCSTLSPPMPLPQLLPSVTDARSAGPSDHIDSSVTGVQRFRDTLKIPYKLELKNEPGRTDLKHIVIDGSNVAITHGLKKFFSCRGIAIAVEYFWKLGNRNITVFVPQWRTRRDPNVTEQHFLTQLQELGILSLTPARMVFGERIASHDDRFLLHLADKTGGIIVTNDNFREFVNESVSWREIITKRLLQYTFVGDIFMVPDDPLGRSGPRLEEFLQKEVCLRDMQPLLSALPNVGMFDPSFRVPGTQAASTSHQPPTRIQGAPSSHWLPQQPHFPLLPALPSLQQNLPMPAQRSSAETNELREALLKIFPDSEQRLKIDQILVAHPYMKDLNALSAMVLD

LNCRDNTRPVMSAMTC [KIgk-LIPH4-23]
binding to LIPG in pull-down assay [1]: positive | copy number of HBV-DNA ([2]; vs control): reduced the copy number of HBV-DNA to near zero

LNCRDNTRPVMSAMTC (LIPH4-23)
anti-HBV activity [2]: remarkable anti-HBV activity | anti-HBV activity (effect to reduce HBV DNA and cccDNA copy numbers) [3]: high anti-HBV activity

C[C@H](NC(=O)[C@@H](NC(=O)[C@H](CC(N)=O)NC(=O)[C@H](Cc1c[nH]cn1)NC(=O)[C@H](CCCNC(=N)N)NC(=O)[C@H](CS)NC(=O)[C@@H](N)CC(N)=O)[C@@H](C)O)C(=O)NCC(=O)O [LIPH4-NTNBs] (H-NCRHNTAG-OH; N-terminus and C-terminus assumed)
solubility in PBS [4]: soluble in PBS (water soluble)

CC(C)C[C@H](N)C(=O)N[C@@H](CC(N)=O)C(=O)N[C@@H](CS)C(=O)N[C@@H](CCCNC(=N)N)C(=O)N[C@@H](CC(=O)O)C(=O)N[C@@H](CC(N)=O)C(=O)N[C@H](C(=O)N[C@@H](CCCNC(=N)N)C(=O)O)[C@@H](C)O [LIPH4-23s] (H-LNCRDNTR-OH; N-terminus and C-terminus assumed)
solubility in PBS [4]: soluble in PBS (water soluble)

B1: LIPG (500 aa, MW: 56.8 kDa) (protein)
chain: SPVPFGPEGRLEDKLHKPKATQTEVKPSVRFNLRTSKDPEHEGCYLSVGHSQPLEDCSFNMTAKTFFIIHGWTMSGIFENWLHKLVSALHTREKDANVVVVDWLPLAHQLYTDAVNNTRVVGHSIARMLDWLQEKDDFSLGNVHLIGYSLGAHVAGYAGNFVKGTVGRITGLDPAGPMFEGADIHKRLSPDDADFVDVLHTYTRSFGLSIGIQMPVGHIDIYPNGGDFQPGCGLNDVLGSIAYGTITEVVKCEHERAVHLFVDSLVNQDKPSFAFQCTDSNRFKKGICLSCRKNRCNSIGYNAKKMRNKRNSKMYLKTRAGMPFRVYHYQMKIHVFSYKNMGEIEPTFYVTLYGTNADSQTLPLEIVERIEQNATNTFLVYTEEDLGDLLKIQLTWEGASQSWYNLWKEFRSYLSQPRNPGRELNIRRIRVKSGETQRKLTFCTEDPENTSISPGRELWFRKCRDGWRMKNETSPTVELP
degradation of a 1203-base HBV L protein RNA by N4BP1 (RNase activity), agarose gel [5]: the degradation of the RNA was suppressed in the presence of LIPG by binding of LIPG to N4BP1
